Results published in patent publication US20220211868A1, “NANOPARTICLES COMPRISING NON-CLASSICAL MHC AND USES THEREOF” (UTI Limited Partnership, priority 2019, published 2022).
“Also recorded” adds a separate entry of the source.

Tests used:
[1] = tested on: liver iNKT cells, Kupffer cells and B-lymphocytes; experiment: Spinning-disk confocal intravital microscopy of liver in Cxcr6GFP/+ Ifng-Delta-ARE+/- (NOD×B6) F1 mice; type: in vivo, mouse
Source text: To get further insights into downstream cellular targets, spinning-disk confocal intravital microscopy was used to track αGalCer/CD1d-NP-induced iNKT cells, Kuppfer cells, and B-lymphocytes in the livers of treated and untreated Ifng-Delta-ARE^+/− (NOD×B6) F1 mice, which also develop spontaneous PBC-like disease. To track iNKT cells in vivo, Cxcr6^GFP/+ mice were used, in which 60-80% of liver eGFP+ cells are iNKT cells, the remainder being NK and T-cells (Geissmann et al., 2005; Liew et al., 2017). In sterile injury in the liver, recognition of endogenous glycolipid ligands on endothelial cells, Kupffer cells and other CD1d-expressing liver cells by iNKT cells result in the conversion of proinflammatory CCR2+ Ly6Chi monocytes into regulatory CX3CR1+ Ly6Clow monocytes, a process that is driven by iNKT-cell-derived IL-4. […] Although there were similar numbers of B-cells in the liver of untreated mice, they […] in interactions with Cxcr6+ cells to the same extent. […] See Lee, W. Y., et al. (2010). “An intravascular immune response to Borrelia burgdorferi involves Kupffer cells and iNKT cells” Nat. Immunol. 11, 295-302.

B-cells = experiment: Breg cell formation from transferred Il10-eGFP B cells in treated NOD.c3c4 mice; type: in vivo, mouse; conditions: within 7 days of transfer; B-cells pulsed with αGalCer or not
Source text: This was done by transferring αGalCer-pulsed or non-pulsed B cells carrying an eGFP transgene in the Il10 locus into αGalCer/CD1d-NP-treated or untreated NOD.c3c4 mice, and enumerated the frequency of transferred CD5+ and CD1d^high B-cells that acquired eGFP expression within 7 days. […] Thus, αGalCer/CD1d-NP treatment triggers iNKTR1 cell formation which then drive Breg cell formation by recognizing endogenous B-cell antigenic ligand(s) in a CD1d-restricted manner.

[2] = tested on: CD11b+ APCs from liver-draining LNs and liver Kupffer cells; experiment: Suppression of antigen presentation by APCs by liver iNKT cells from treated mice; type: cell-based, mouse; conditions: APCs from untreated mice, FIG. 9
Source text: (§1) Next the mechanisms of disease suppression were investigated.

liver iNKT cells = experiment: RNA sequencing (RNAseq) of liver iNKT cells sorted from treated vs. untreated NOD.c3c4 mice; type: in vivo, mouse
Procedure: FIG. 5 illustrates normalized RNA expression counts (±SEM) for iNKT-relevant genes in the liver iNKT cells of NOD.c3c4 mice treated with αGalCer (KRN7000)/CD1d-NPs vs. control NOD.c3c4 mice.
To investigate this, RNA sequencing (RNAseq) studies of liver iNKT cells sorted from αGalCer/CD1d-NP-treated vs. untreated NOD.c3c4 mice was performed. […] When considering genes known to be expressed in various iNKT cell subsets (Gapin, L. (2016). “Development of invariant natural killer T cells” Curr. Opin. Immunol. 39, 68-74) including iNKT1 (Zbtb16 (PLZF)-low, Tbx21 (Tbet)+, Gata3−, Rorc (RORgt)−, Foxp3−, Maf−, Cd24−, Cd44+, Klrb1 (NK1.1)+, Ifbg+, IL2−, Il4+, Il17−, Il10−, Il21−, Il2rb (Cd122)+, Mirlet7 (LET-7)+, Znf683 (HOBIT)-high), iNKT2 (Zbtb16-high, Tbx21−, Gata3+, Rorc−, Maf−, Foxp3−, Cd24−, Cd44+, Klrb1−, Ifng−, Il2−, Il4+, Il17−, Il10−, Il21−, Il17rb+, Tnfsf11 (RANKL)+; and iNKT17 (Zbtb16-int, Tbx21−, Gata3−, Rorc+, Foxp3−, Maf-low, Cd24−, Cd44+, Klrb1-low/−, Il2−, il4−, Ifng−, Il17+, Il10−, Il21−, Tgfbr2+, Tnfsf11+), the liver iNKT cells of non-treated NOD.c3c4 mice appeared to be rather unique (Zbtb16+, Tbx21+, Gata3+, Rorc-low, Foxp3−, Maf-low, Cd24-low, Cd44+, Klrb1+, Il2−, Il4-low, Ifng+, Il17−, Il10−, Il21−, Il2rb+, Il17rb-low, Tgfbr2+, Mirlet7−, Znf683−, Tnfsf11−). Remarkably, the liver iNKT cells from treated animals were somewhat similar to the latter, except that they were Rorc−, Maf-high, Il10-high, Il21-high, Il2rb+, Il17rb− and Tgfbr2-low. […] The liver iNKT cells of treated mice were also different from αGalCer-induced NKT10 cells, based on available gene expression data (Il10+, Klrb1-low, Nfil3+ (E4BP4, which regulates IL-10 and IL-13 expression), Nrp1+, Itga4+, Itgae−, Ctla4+, Fr4+, Bcl6−, Il7r+, Slamf6-high, Icos+) (Sag et al., 2014). Unlike these iNKT10 cells, the liver iNKT cells from treated mice were Nfli3−, Nrp1-low, Fr4−, Bcl6-low and Il7r-low. […] These observations were substantiated by comparing the liver iNKT RNAseq data from αGalCer/CD1d-NP-treated and untreated mice to iNKT1, iNKT2, iNKT10 and iNKT17 RNAseq data from Engel et al. (Engel, I., et al. (2016). “Innate-like functions of natural killer T cell subsets result from highly divergent gene programs” Nat. Immunol. 17, 728-739.) (FIG. 6A to 6D)
To ascertain if some of the gene expression differences that were observed between the liver iNKT cells of αGalCer/CD1d-NP-treated and untreated mice were driven, at least in part, by their unique transcriptional factor expression profile, which transcription factors were associated with expression of differentially expressed genes was determined.
Consequently, these αGalCer/CD1d-NP-induced liver iNKT cells are called iNKTR1 cells.

[3] = tested on: spontaneous PBC-like disease in NOD.c3c4 mice; experiment: Treatment of spontaneous PBC-like disease in NOD.c3c4 mice; type: in vivo, mouse; conditions: FIG. 2
Source text: FIG. 2 illustrates the effect of treatment with αGalCer (KRN7000)/CD1d-coated NPs vs soluble KRN7000 or uncoated NPs on readouts of PBC in NOD.c3c4 mice. CBD, Common Bile Duct.

wild-type NOD.c3c4 mice = experiment: Cytokine/cytokine receptor blockade of therapeutic activity in treated NOD.c3c4 mice; type: in vivo, mouse
NOD.c3c4.scid mice = experiment: Transfer of disease protection by liver iNKT cells to NOD.c3c4.scid mice reconstituted with diseased splenocytes; type: in vivo, mouse; conditions: vs liver iNKT cells from control NOD.c3c4 donors; FIG. 10
Source text: as §1

iNKT cells = experiment: Flow cytometry of iNKT cells (αGalCer/CD1d tetramer stained) from treated NOD.c3c4 mice; type: in vivo, mouse
Source text: FIG. 3 illustrates the effect of treatment with αGalCer (KRN7000)/CD1d-coated NPs vs uncoated NPs on the CD4/CD8 phenotype of liver (top) and splenic (bottom) iNKT cells (stained with αGalCer (KRN7000)/CD1d tetramers).
FIG. 4 illustrates the effect of treatment with αGalCer (KRN7000)/CD1d-coated NPs vs uncoated NPs on the levels of PD1, CD49d, CD69 and LAG3 in liver iNKT cells (stained with αGalCer (KRN7000)/CD1d tetramers).

[4] = RNAseq, negative in liver iNKT cells of untreated mice
[5] = RNAseq, treated mice, unlike iNKT10 cells
[6] = RNAseq, treated vs untreated mice
[7] = flow cytometry, vs liver iNKT cells of control (untreated or Cys-NP-treated) mice, FIG. 4
[8] = treated NOD.c3c4 mice, not shown

αGalCer/CD1d-NP: nanoparticles coupled to CD1d molecules whose binding groove is loaded with alpha-galactosylceramide (KRN7000)
B-cell killing through iNKT-B-cell interactions ([1]; 4 days after the last dose): did not appear to result in B-cell killing | interaction of liver iNKT cells with B-cells ([1]; 4 days after the last dose, anti-CD19 labelled B-cells): seeking and engaging | number of liver iNKT cells ([1]; bi-weekly treatment, vs untreated mice): massive increase | motility of liver iNKT cells ([1]; imaged 4 days after the last dose): highly motile | motility of liver iNKT cells ([1]; imaged within 4 hours of a dose): stopped moving | conversion of transferred B-cells into IL-10/eGFP-expressing CD1d-high/CD5+ Breg cells (B-cells): Breg cell formation in treated, but not untreated animals; also recorded: can trigger the conversion | suppression of presentation of IGRP206-214 peptide to cognate TCR-transgenic CD8+ T-cells [2]: could suppress | expression levels of compared genes in induced liver iNKT cells vs TR1 cells (liver iNKT cells; 66 genes, normalized gene counts, FIG. 8): highly similar levels of expression | genes with >4-fold differences in expression compared with TR1 cells (liver iNKT cells; FIG. 8, number of genes): 66 | IL-10 (Il10) expression in liver iNKT cells (liver iNKT cells; RNA, treated vs untreated mice): high upregulation; also recorded: Il10-high; also recorded: several hundred-fold higher levels | IL-21 (Il21) expression in liver iNKT cells (liver iNKT cells; RNA, treated vs untreated mice): Il21-high; also recorded: high upregulation; also recorded: several hundred-fold higher levels | CTLA4 (Ctla4) expression in liver iNKT cells (liver iNKT cells; [4]): high levels; also recorded: high upregulation | Itga4 (CD49d) expression in liver iNKT cells (liver iNKT cells; [4]): high levels | Lag3 expression in liver iNKT cells (liver iNKT cells; [4]): high levels; also recorded: high upregulation | Slamf6 expression in liver iNKT cells (liver iNKT cells; [4]): high levels | Bcl6 expression in liver iNKT cells (liver iNKT cells; RNAseq, treated mice): Bcl6-low; also recorded: low levels | Ccr6 expression in liver iNKT cells (liver iNKT cells; RNAseq, treated mice): significantly downregulated | Il7r expression in liver iNKT cells (liver iNKT cells; RNAseq, treated mice): significantly downregulated; also recorded: Il7r-low | Itgae (CD103) expression in liver iNKT cells (liver iNKT cells; RNAseq, treated mice): significantly downregulated | Nrp1 expression in liver iNKT cells (liver iNKT cells; RNAseq, treated mice): Nrp1-low | Tnfrsf14 (BTLA) expression in liver iNKT cells (liver iNKT cells; RNAseq, treated mice): significantly downregulated | Fr4 expression in liver iNKT cells (liver iNKT cells; [5]): Fr4− | Nfil3 expression in liver iNKT cells (liver iNKT cells; [5]): Nfli3− | Cxcr5 expression in liver iNKT cells (liver iNKT cells; RNAseq, treated mice, unlike iNKT-FH cells): lack expression | Gata3 expression in liver iNKT cells (liver iNKT cells; [6]): significantly upregulated | PD1 expression in liver iNKT cells (liver iNKT cells; [6]): high upregulation | TIGIT expression in liver iNKT cells (liver iNKT cells; [6]): high upregulation | Vdr expression in liver iNKT cells (liver iNKT cells; [6]): significantly upregulated | c-maf (Maf) expression in liver iNKT cells (liver iNKT cells; [6]): high upregulation; also recorded: Maf-high; also recorded: significantly upregulated | Il2rb expression in liver iNKT cells (liver iNKT cells; RNAseq, untreated: Il2rb+): Il2rb+ | Il17rb expression in liver iNKT cells (liver iNKT cells; RNAseq, untreated: Il17rb-low): Il17rb− | Rorc expression in liver iNKT cells (liver iNKT cells; RNAseq, untreated: Rorc-low): Rorc− | Tgfbr2 expression in liver iNKT cells (liver iNKT cells; RNAseq, untreated: Tgfbr2+): Tgfbr2-low | differentially expressed genes shared by the TR1 cells (liver iNKT cells; of 238, comparison of RNA-seq profiles): 91 | differentially expressed genes also upregulated in cognate TR1-like CD4+ T-cells of pMHCII-NP-treated mice (liver iNKT cells; of 238, number of genes): 138 | downregulated genes co-regulated by Maf, Gata3 and Vdr (liver iNKT cells; of the 71 downregulated, FIG. 7): none | upregulated protein-coding genes co-regulated by Maf, Gata3 and Vdr (liver iNKT cells; of the 135 upregulated, FIG. 7): 66 | differentially expressed genes also upregulated in cognate TR1-like CD4+ T-cells of pMHCII-NP-treated mice (liver iNKT cells; share of 238 genes): 58% | number of differentially expressed genes in liver iNKT cells (liver iNKT cells; treated vs untreated mice): 238 | number of downregulated protein-coding genes in liver iNKT cells (liver iNKT cells; treated vs untreated mice): 71 | number of upregulated protein-coding genes in liver iNKT cells (liver iNKT cells; treated vs untreated mice): 135 | effect on spontaneous PBC-like disease [3]: profound suppressive effect | effect of IL-21R blockade on therapeutic activity (wild-type NOD.c3c4 mice; mouse, in vivo): abrogated | inhibition of therapeutic activity by IFNγ blockade (wild-type NOD.c3c4 mice; wild-type NOD.c3c4 mice): not | inhibition of therapeutic activity by IL-4 blockade (wild-type NOD.c3c4 mice; wild-type NOD.c3c4 mice): to a lesser extent | inhibition of therapeutic activity by IL-10 blockade (wild-type NOD.c3c4 mice; wild-type NOD.c3c4 mice): partially inhibited | transfer of disease protection by liver iNKT cells from treated mice (NOD.c3c4.scid mice): could transfer disease protection | CD4/CD8 phenotype of splenic and liver-associated iNKT cells (iNKT cells; at the expense of CD4−CD8− iNKT cells, FIG. 3): enriched for CD4+CD8− iNKTs | CD69 level on iNKT cells (iNKT cells; [7]): significantly higher levels | CD49d level on iNKT cells (iNKT cells; [7]): significantly higher levels | Lag-3 level on iNKT cells (iNKT cells; [7]): significantly higher levels | PD1 level on iNKT cells (iNKT cells; [7]): significantly higher levels | circulating frequency of iNKT cells (iNKT cells; [8]): slight increase | iNKT content in spleen and lymph nodes (liver-draining and not) (iNKT cells; [8]): slight decrease
